{
  "source": "patent US20230183640A1",
  "about": "“METABOLIC INHIBITORS WITH EFFICACY FOR INHIBITING SULFIDE PRODUCTION IN HARSH ENVIRONMENTS” (MC (US) 3 LLC, priority 2020, published 2023)",
  "key": {"[1]": {"system": "Desulfovibrio alaskensis 14563", "assay": "H2S and Log (Growth) efficacy, 10 mL Serum Vial Method", "format": "cell-based", "method": "(§1) A lyophilized Desulfovibrio alaskensis 14563, Desulfovibrio longus 51456, and Desulfovibrio gabonensis 700201 pure cultures received from ATCC were resuspended individually in 500 ul of MB 1250. Aseptically, the content was transferred to a 5-mL tube of MB1250 medium. The cultures were incubated in an anaerobic chamber at 30° C. for 72 hrs. Subsequently, an individual stock culture with a final concentration of 25% glycerol were prepared by adding equal volumes of culture and 50% glycerol. 1 ml of the cultures were then transferred to 2-ml cryogenic vials and stored at −80° C. The purity of the stock cultures was evaluated through PCR, by amplifying the 16S rDNA region, and thus, it was verified that the original ATCC sample was a pure culture. 48-hour cultures of ATCC Desulfovibrio alaskensis 14563, Desulfovibrio longus 51456, and Desulfovibrio gabonensis 700201 were prepared in an anaerobic chamber. Each culture was prepared as a 1:10 culture by taking 1 milliliter (mL) of a pure culture and inoculating 9 milliliters (mL) of fresh MB1250 media. The Desulfovibrio alaskensis 14563 and Desulfovibrio gabonensis 700201 were all grown at 30° C. and the Desulfovibrio longus 51456 culture was grown at 35° C.\nAfter the 48-hour incubation, 600 microliters (μL) were taken from the Desulfovibrio alaskensis 14563 culture and optical density (OD) was measured using a Thermofisher Spectronic 200 Spectrophotometer at 600 nm. Each culture was diluted to 0.05 OD600 in fresh MB1250 media and 5 mL of culture solution is transferred to 10 mL Vials and compound Cis stock solution is added. In Table 4 and 5, the concentrations of the compound C1 used for the experiments are listed. Each experiment was done with at least three replicates for different treatments and non-treatment controls. At 2 days, 3 days and 5 days, enumeration plates were made, and sulfide samples were taken in triplicate.\nThe enumerations were done in triplicate having 20 μL taken from each vial and placing them into 3 wells of first row in a 96-well plate. Then, the same serial dilution process was done with the test plate procedure as described in 96-well plate method. These enumerations were read after 7 days of growth at 30° C. in the anaerobic chamber. For the sulfide assay, 9 μL were taken from each vial and placed in 3 wells with 2% zinc acetate. The assay procedure was the same as described in 96-well plate method."}, "[2]": {"system": "Desulfovibrio alaskensis 14563", "assay": "H2S and Log (Growth) efficacy against SRB, 96-Well Plate Method", "format": "cell-based", "method": "as §1\nAfter the 48-hour incubation, 600 microliters (μL) were taken from each culture and optical density (OD) was measured using a Thermofisher Spectronic 200 Spectrophotometer at 600 nm. Each culture was diluted to 0.05 OD600 in fresh MB1250 media and added to the 96 well plates. Edge wells were not used due to their inherent variability and evaporation of the media. Each of the components were added at their respective concentrations for a final volume of 500 μL per well. In Table 3, 6 and 7, the concentrations of the compound used for the experiments are listed. Each experiment was done with at least three replicates for different treatments and non-treatment controls. […] Plates were then sealed with a titer-top and placed into anaerobic boxes and incubated in an anaerobic incubator at 30° C.\nAt each time point, sulfide samples were taken, and enumeration plates were made. Enumeration plates were made to determine the log growth in each dosed sample. For this process, enumeration plates were prepared by adding 180 μL fresh media MB1250 containing 0.01 wt % ferrous ammonium sulfate. 20 μL was taken from each well of the challenge plates and transferred to the enumeration plates using a 20-200 μL multichannel pipette. Enumeration plates were mixed three times using the multichannel pipette and serial diluted down the plate tenfold (20 μL into 180 μL). This serial dilution process was repeated for all challenge plate rows giving a total of 6 enumeration plates.\nAfter 7 days these enumeration plates were read. The ferrous ammonium sulfate in each plate would be converted to iron sulfide, changing wells with SRB growth from clear to black. By counting the number of black wells in a row, the log growth from the original well in the challenge plate can be determined.\nTo determine hydrogen sulfide production in each sample, sulfide samples were also taken from each challenge plate. From each well, 9 μL were taken and added to 60 μL of 2% zinc acetate with 0.02% acetic acid. Then, 180 μL of milliQ water was added. 60 μL of stock solution 1 containing 64% sulfuric acid, <1% Dimethyl-4-phenylenediamine (DMPD), water to 100% was added to each well on the plates. This was followed by 3 μL of stock solution 3 containing 50% Iron (III) chloride. All chemicals are ordered from Fisher Scientific and used as received. These were mixed three times and read after 15 minutes. The plates were read at 670 nm using a Biotek microplate reader. Absorbance readings were converted to mM using a standard curve and this was converted to parts per million using the molar mass of sulfur. The standard curves were made using sodium sulfide nonahydrate solutions to give final solutions of 0, 0.125, 0.25 0.5, 1.0, and 1.5 ppm."}},
  "data": [
    {"smiles": "O=C(CN1C(=O)c2cccc3cccc(c23)C1=O)NO", "note": "[C1]", "values": [
      {"measurement": "H2S", "setting": "[1]; 2 days, 0.09 PPM", "value": 233.1, "unit": "PPM"},
      {"measurement": "Log (Growth)", "setting": "[1]; 2 days, 0.09 PPM", "value": 7.9},
      {"measurement": "H2S", "setting": "[1]; 2 days, 0.19 PPM", "value": 202.1, "unit": "PPM"},
      {"measurement": "Log (Growth)", "setting": "[1]; 2 days, 0.19 PPM", "value": 8.0},
      {"measurement": "H2S", "setting": "[1]; 2 days, 0.38 PPM", "value": 170.4, "unit": "PPM"},
      {"measurement": "Log (Growth)", "setting": "[1]; 2 days, 0.38 PPM", "value": 7.8},
      {"measurement": "H2S", "setting": "[1]; 2 days, 0.75 PPM", "value": 121.6, "unit": "PPM"},
      {"measurement": "Log (Growth)", "setting": "[1]; 2 days, 0.75 PPM", "value": 7.2},
      {"measurement": "H2S", "setting": "[1]; 3 days, 0.75 PPM", "value": 190.2, "unit": "PPM"},
      {"measurement": "Log (Growth)", "setting": "[1]; 3 days, 0.75 PPM", "value": 7.4},
      {"measurement": "H2S", "setting": "[1]; 3 days, 1.5 PPM", "value": 50.1, "unit": "PPM"},
      {"measurement": "Log (Growth)", "setting": "[1]; 3 days, 1.5 PPM", "value": 4.8},
      {"measurement": "H2S", "setting": "[1]; 3 days, 3.0 PPM", "value": 23.1, "unit": "PPM"},
      {"measurement": "Log (Growth)", "setting": "[1]; 3 days, 3.0 PPM", "value": 4.0},
      {"measurement": "H2S", "setting": "[1]; 3 days, 6.0 PPM", "value": 19.2, "unit": "PPM"},
      {"measurement": "Log (Growth)", "setting": "[1]; 3 days, 6.0 PPM", "value": 0.0},
      {"measurement": "H2S", "setting": "[1]; 5 days, 0.75 PPM", "value": 253.3, "unit": "PPM"},
      {"measurement": "Log (Growth)", "setting": "[1]; 5 days, 0.75 PPM", "value": 7.9},
      {"measurement": "H2S", "setting": "[1]; 5 days, 1.5 PPM", "value": 69.9, "unit": "PPM"},
      {"measurement": "Log (Growth)", "setting": "[1]; 5 days, 1.5 PPM", "value": 6.2},
      {"measurement": "H2S", "setting": "[1]; 5 days, 3.0 PPM", "value": 19.5, "unit": "PPM"},
      {"measurement": "Log (Growth)", "setting": "[1]; 5 days, 3.0 PPM", "value": 1.0},
      {"measurement": "H2S", "setting": "[1]; 5 days, 6.0 PPM", "value": 15, "unit": "PPM"},
      {"measurement": "Log (Growth)", "setting": "[1]; 5 days, 6.0 PPM", "value": 0.0},
      {"measurement": "H2S", "setting": "[2]; 3 days, 6.4 PPM", "value": 15.5, "unit": "PPM"},
      {"measurement": "Log (Growth)", "setting": "[2]; 3 days, 6.4 PPM", "value": 2.7},
      {"measurement": "H2S", "setting": "[2]; 3 days, 12.8 PPM", "value": 13.5, "unit": "PPM"},
      {"measurement": "Log (Growth)", "setting": "[2]; 3 days, 12.8 PPM", "value": 2.0},
      {"measurement": "H2S", "setting": "[2]; 3 days, 25.6 PPM", "value": 15.1, "unit": "PPM"},
      {"measurement": "Log (Growth)", "setting": "[2]; 3 days, 25.6 PPM", "value": 0.0},
      {"measurement": "H2S", "setting": "[2]; 3 days, 51.3 PPM", "value": 15.4, "unit": "PPM"},
      {"measurement": "Log (Growth)", "setting": "[2]; 3 days, 51.3 PPM", "value": 0.0},
      {"measurement": "H2S", "setting": "[2]; 3 days, 102.5 PPM", "value": 13.6, "unit": "PPM"},
      {"measurement": "Log (Growth)", "setting": "[2]; 3 days, 102.5 PPM", "value": 0.3},
      {"measurement": "H2S", "setting": "[2]; 3 days, 205.0 PPM", "value": 12.7, "unit": "PPM"},
      {"measurement": "Log (Growth)", "setting": "[2]; 3 days, 205.0 PPM", "value": 0.3},
      {"measurement": "H2S", "setting": "[2]; 6 days, 6.4 PPM", "value": 18.1, "unit": "PPM"},
      {"measurement": "Log (Growth)", "setting": "[2]; 6 days, 6.4 PPM", "value": 3.3},
      {"measurement": "H2S", "setting": "[2]; 6 days, 12.8 PPM", "value": 23.5, "unit": "PPM"},
      {"measurement": "Log (Growth)", "setting": "[2]; 6 days, 12.8 PPM", "value": 2.7},
      {"measurement": "H2S", "setting": "[2]; 6 days, 25.6 PPM", "value": 8.8, "unit": "PPM"},
      {"measurement": "Log (Growth)", "setting": "[2]; 6 days, 25.6 PPM", "value": 1.0},
      {"measurement": "H2S", "setting": "[2]; 6 days, 51.3 PPM", "value": 8.3, "unit": "PPM"},
      {"measurement": "Log (Growth)", "setting": "[2]; 6 days, 51.3 PPM", "value": 0.0},
      {"measurement": "H2S", "setting": "[2]; 6 days, 102.5 PPM", "value": 8.7, "unit": "PPM"},
      {"measurement": "Log (Growth)", "setting": "[2]; 6 days, 102.5 PPM", "value": 0.0},
      {"measurement": "H2S", "setting": "[2]; 6 days, 205.0 PPM", "value": 9.0, "unit": "PPM"},
      {"measurement": "Log (Growth)", "setting": "[2]; 6 days, 205.0 PPM", "value": 0.0}
    ]}
  ]
}
